Assays:
[1] = system: OVCAR-3; assay: IC50 in OVCAR-3 tumor cell model; type: cell-based; details: human ovarian cancer model
Description: (§1) Representative IC50 values of thiarabine and related prodrugs tested in two tumor cell models, a humanized murine colorectal model MC38^hPDL-1 and a human ovarian cancer model OVCAR-3, are shown in Table 1 below.

[2] = system: MC38^hPDL-1 colon tumor cells; assay: MC38^hPDL-1 tumor response to mono- and combination-therapy in mice; type: in vivo, C57BL/6^hPD-1/hPD-L1 mice; details: combination with Keytruda; subcutaneous MC38^hPDL-1 tumor; FIG. 1A/1B
Experimental: A total of 32 C57BL/6^hPD-1/hPD-L1 mice, male and female, were injected subcutaneously with five hundred thousand (5×10^5) MC38^hPDL-1 colon tumor cells in the right flank at a volume of 0.1 mL. Innoculation day was marked as Day 0. Tumor measurements were taken biweekly for the duration of the study. Tumor weights (mg) were calculated using the equation for an ellipsoid sphere: (l×w^2)/2=mm^3, where l and w refer to the larger and smaller dimensions collected at each measurement and assuming unit density (1 mm^3=1 mg). Target tumor weight for initiation of treatment was approximately 75 to 144 mg for a target group mean tumor weight of approximately 110 mg. The animals on study were randomly assigned to four groups to contain two males and six females. Dosing began on day 13 of the study. Re-challenge of MC38^1-1 in the opposite flank of tumor-free mice from the Keytruda and combination groups occurred on day 31 of the study and mice were monitored for tumor growth for the duration of the study.
Thiarabine: The 500 mg vial was reconstituted with 4.6 mL of saline (0.9% Sodium chloride) to yield a 100 mg/mL stock solution. Each day of dosing, the 100 mg/mL solution was diluted to […] with saline. The dose concentration was 10 mL/kg with a dose volume of 0.1 mL for dose of 30 mg/kg. Mice were dosed IP Q2Dx10. […]

[3] = system: MC38^hPDL-1; assay: IC50 in MC38^hPDL-1 tumor cell model; type: cell-based; details: Mus musculus, MC38-hPD-L1; humanized murine colorectal model; read-out: MC38^huPD=L1 (IC50 μM)
Description: as §1

`CC(C)OC(=O)[C@H](C)NP(=O)(OC[C@H]1S[C@@H](n2ccc(N)nc2=O)[C@@H](O)[C@@H]1O)Oc1ccccc1` (single isomer, unassigned) [SRI-41302] was tested. Which IC50 [1] did it give?
The IC50 was 1.25 µM.

What about the “tumor volume over time” value [2] of the same compound?
The value was “total tumor regression”.

And the IC50 [3]?
The IC50 was 15.8 µM.

How did the IC50 [1] turn out when `CCC(CC)COC(=O)[C@H](C)NP(=O)(OC[C@H]1S[C@@H](n2ccc(N)nc2=O)[C@@H](O)[C@@H]1O)Oc1ccccc1` (stereo partly drawn) [SRI-44340, ethylbutyl ((((2R,3S,4S,5R)-5-(4-amino-2-oxopyrimidin-1(2H)-yl)-3,4-dihydroxytetrahydrothiophen-2-yl)methoxy)(phenoxy)phosphoryl)-1-alaninate] was run?
Its IC50 is 0.65 µM.

`Nc1ccn([C@@H]2S[C@H](CO)[C@@H](O)[C@@H]2O)c(=O)n1` [Thiarabine] was tested. Which IC50 [1] did it give?
The IC50 was 1.13 µM.

And the “tumor volume over time” value [2]?
The value was “total tumor regression”.

And the IC50 [3]?
Its IC50 is 2.71 µM.

Reference: patent US20220241310A1, “THIARABINE- AND THIARABINE PRODRUG-BASED TREATMENTS” (Southern Research Institute, priority 2019, published 2022)
